In the Deep4Chem optical property database one finds emission maximum data, which are given here for 36 compounds.

SMILES strings stand for the structures.

This data set can be described thus: solvent given as SMILES.

As to `CCN(CC)c1ccc(/C=C/c2cc(/C=C/c3ccc(N(CC)CC)cc3)nc(N)n2)cc1`, the emission maximum reads like this: (in Cc1ccccc1) 468 nm; (in ClC(Cl)Cl) 518 nm.
Consider `c1ccc(Nc2nc(Nc3ccccc3)nc(Nc3cc4ccc5cccc6ccc(c3)c4c56)n2)cc1`, for which the emission maximum reads like this: (in CC#N) 398 nm; (in CCCCOCCCC) 397 nm; (in CO) 399 nm.
The compound `CCn1c2ccccc2c2c(N(c3ccccc3)c3ccccc3)cccc21` had an emission maximum (in ClCCl) of 418 nm.
Same read-out and setting: the same measure for `CN(C)c1cc(-c2ccc(C#Cc3cc[n+](C)cc3)cc2)cc2ccccc12`: 510 nm.
As for `COc1ccc(-c2cc3ccc4cc(-c5ccc(OC)cc5)cc5ccc(c2)c3c45)cc1`, the emission maximum is recorded as 418.86 nm (in C1CCCCC1); 416.47 nm (in C1CCOC1); 414.88 nm (in CC#N); 417.26 nm (in CCCCCC); 416.27 nm (in CCO); 417.86 nm (in CN(C)C=O). In addition, the emission maximum was 418.06 nm (in CO), 417.61 nm (in ClC(Cl)Cl) and 417.26 nm (in ClCCl).
Compound `CCOC(=O)c1c(-c2cc3cc4c(cc3oc2=O)OC(C)(C)CC4)nn(-c2ccccc2)c1C(=O)OCC` yielded an emission maximum (in ClCCl) of 430 nm.
For the setting “in C1CCOC1”, `COC(=O)c1ccc(/C=C/C(F)(F)F)c(N)c1` had an emission maximum of 447 nm.
`CCn1c2ccccc2c2cc(C#Cc3cc(C#Cc4ccc5c(c4)c4ccccc4n5CC)ncn3)ccc21`: the emission maximum is, setting by setting: (in C1CCOC1) 451 nm; (in CCOC(C)=O) 445 nm; (in CN(C)C=O) 502 nm; (in Cc1ccccc1) 411 nm; (in ClCCl) 484 nm.
With `CCC1(CC)c2cc(C=C(C#N)C#N)ccc2-c2ccc(N(C)C)cc21`, the emission maximum is, setting by setting: (in C1CCCCC1) 528 nm; (in CC#N) 688 nm; (in CCO) 677 nm; (in CCOCC) 579 nm; (in CS(C)=O) 711 nm; (in ClCCl) 631 nm. The emission maximum (in c1ccccc1) worked out at 560 nm.
On to `CCCCCCCCCCCCn1nnc(-c2ccc(C#Cc3ccc(C#Cc4ccc(-c5nnn(CCCCCCCCCCCC)n5)cc4)c4nc5c6ccccc6c6ccccc6c5nc34)cc2)n1`, for which the emission maximum stood at 495 nm (in C1CCOC1), 488 nm (in Cc1ccccc1) and 502 nm (in ClCCl).
`CCC1=C(C)C2=C(c3cc(C(=O)Cl)cc(C4=C5C(C)=C(CC)C(C)=[N+]5[B-](F)(F)n5c(C)c(CC)c(C)c54)c3)c3c(C)c(CC)c(C)n3[B-](F)(F)[N+]2=C1C`: the emission maximum is, setting by setting: (in C1CCOC1) 549 nm; (in CC#N) 548 nm; (in CN(C)C=O) 560 nm; (in Cc1ccccc1) 562 nm; (in ClC(Cl)Cl) 562 nm.
Consider `Cc1cc(-c2cccc3ccccc23)cc(C)[o+]1`, for which the emission maximum (in ClCCl) came out at 554 nm.
On to `c1ccc(-c2ccc(-c3ccc4c(c3)CCCO4)cc2)cc1`, for which, for the setting “in C1CCCCC1”, the emission maximum turned out to be 359 nm.
Where the note is “in ClCCl”, `N#Cc1ccc(C#Cc2ncc(-c3ccccc3)o2)cc1` returned an emission maximum of 410 nm.
For the setting “in ClCCl”, `c1ccc2c(-n3c(-c4ccc(-c5ccc(-c6nc7c8ccccc8c8ccccc8c7n6-c6cccc7ccccc67)c6ccccc56)c5ccccc45)nc4c5ccccc5c5ccccc5c43)cccc2c1` displayed an emission maximum of 428 nm.
Compound `Cc1nc(-c2cc(N)ccc2O)n2c1CCCC2` returned an emission maximum (in ClCCl) of 543 nm.
In the case of `CC1(C)C(/C=C/C=C/C=C/C=C2/N(CCCCCC(=O)O)c3ccc(S(=O)(=O)[O-])cc3C2(C)C)=[N+](CCCCCC(=O)O)c2ccc(S(=O)(=O)[O-])cc21`, the emission maximum is, setting by setting: (in CO) 773 nm; (in O) 771 nm.
`CC(=O)Nc1cccc2c1C#Cc1c(cccc1C(=O)N(C)C)OCCCO2` gave an emission maximum (in CC#N) of 394 nm and an emission maximum (in ClCCl) of 390 nm.
In turn, `N#Cc1cc2ccccc2oc1=O` returned an emission maximum (in C1CCCCC1) of 412 nm; an emission maximum (in C1CCOC1) of 409 nm; an emission maximum (in CC#N) of 407 nm; an emission maximum (in CCOC(C)=O) of 410 nm; an emission maximum (in CS(C)=O) of 405 nm; an emission maximum (in ClC(Cl)Cl) of 411 nm.
For the setting “in Cc1ccccc1”, `Fc1c(F)c(-n2c3ccccc3c3ccccc32)c(F)c(F)c1/C=C/C(=C(c1ccccc1)c1ccccc1)c1ccccc1` had an emission maximum of 445 nm.
As for `CCOC(=O)c1c(CSc2ccccc2)n(C)c2cc(Br)c(O)c(CN(C)C)c12`, the emission maximum (in O) turned out to be 350 nm.
`CCCCC1(CCCC)c2cc(C#Cc3ccc(C=C4c5ccccc5CCc5ccccc54)cc3)ccc2-c2ccc(C#Cc3ccc(C=C4c5ccccc5CCc5ccccc54)cc3)cc21` returned an emission maximum (in C1CCOC1) of 406 nm.
For the setting “in ClC(Cl)Cl”, `COc1ccc(C2=Cc3c4ccccc4c4ccccc4[n+]3[B-](F)(F)O2)cc1` displayed an emission maximum of 461 nm.
With `CC(C)(C)c1ccc(C2=C(c3ccc(-n4c5ccc(C(C)(C)C)cc5c5cc(C(C)(C)C)ccc54)cc3)S(=O)(=O)c3c2sc(-c2ccc(-n4c5ccc(C(C)(C)C)cc5c5cc(C(C)(C)C)ccc54)cc2)c3-c2ccc(C(C)(C)C)cc2)cc1`, under “in C1CCOC1”, the emission maximum is given as 555 nm.
As for `c1ccc(CSc2c3ccc(=[N+]4CCCCC4)cc-3oc3cc(N4CCCCC4)ccc23)cc1`, the emission maximum (in ClCCl) is recorded as 619 nm.
Where the note is “in ClC(Cl)Cl”, `CCCCCCCCCCOc1cc(OCCCCCCCCCC)cc(C2=C3C(/C=C/c4ccc(N(C)C)cc4)=C(C#Cc4ccc(C(C)(C)C)cc4)C(/C=C/c4ccc(N(C)C)cc4)=[N+]3[B-](F)(F)n3c(/C=C/c4ccc(N(C)C)cc4)c(C#Cc4ccc(C(C)(C)C)cc4)c(/C=C/c4ccc(N(C)C)cc4)c32)c1` had an emission maximum of 835 nm.
On the same count and under the same terms, the same measure for `CCCCCCCCCCCCc1sc(CCCCCC)c2c3cc(CCCCCC)sc3c3sc(CCCCCC)cc3c12`: 423 nm.
Regarding `CCCCCC(=O)c1ccc2c3c(sc2c1)-c1ccccc1P3(=O)c1ccccc1` (stereo unspecified), for the setting “in ClCCl”, the emission maximum was found to be 428 nm.
`CCn1c(-c2ccc(-c3ccc(-c4ccc(-c5n(CC)c6ccccc6[n+]5CC)cc4)cc3)cc2)[n+](CC)c2ccccc21` came in with an emission maximum (in O) of 397 nm.
As to `CC(C)(C)NC(=O)c1c([Si](C)(C)C)cc2ccc3cccc4ccc1c2c34`, the emission maximum (in ClC(Cl)Cl) came out at 383 nm.
`Nc1ccccc1`: the emission maximum (in C1CCCCC1) was determined as 323.42 nm.
On to `CCCCCCCCCCCCCCCCCCOc1ccc([B-]23NC(c4ccccc4)=Nc4cccc([n+]42)N=C(c2ccccc2)N3)cc1`, for which the emission maximum (in ClCCl) came out at 511 nm.
On to `CC1(C)c2ccccc2N(c2ccc(-c3nc([C@]45CC6CC(C[C@@H](C6)C4)C5)nc([C@]45C[C@H]6C[C@@H](C[C@H](C6)C4)C5)n3)cc2)c2ccccc21`, for which the emission maximum reads like this: (in CC(C)(C)c1ccc(-n2c3ccc([Si](c4ccccc4)(c4ccccc4)c4ccccc4)cc3c3cc([Si](c4ccccc4)(c4ccccc4)c4ccccc4)ccc32)cc1) 450 nm; (in Cc1ccccc1) 469.63 nm.
`c1ccc2cc3c4c(ccc3cc2c1)-c1cccc2cccc-4c12` had an emission maximum (in CCCCCCC) of 520 nm.
`O=C1c2cc3ccccc3cc2C2=Nc3cccc[n+]3[B-](F)(F)N12` gave an emission maximum (in ClCCl) of 414 nm.
Still for that read-out and setting: the same measure for `CC(C)(C)c1ccc2c(c1)c1cc(C(C)(C)C)ccc1n2-c1ccc(N(c2ccc(-c3ccc(-c4ccc(-c5ccc(-c6ccc(N(c7ccc(-n8c9ccc(C(C)(C)C)cc9c9cc(C(C)(C)C)ccc98)cc7)c7ccc(-n8c9ccc(C(C)(C)C)cc9c9cc(C(C)(C)C)ccc98)cc7)cc6)cc5)c5nsnc45)cc3)cc2)c2ccc(-n3c4ccc(C(C)(C)C)cc4c4cc(C(C)(C)C)ccc43)cc2)cc1`: 513 nm.
